System: protein (gelatin) layers of photographic film
Experiment: Photographic film test: removal of gelatin protein layers by enzyme in heated water
Type: biochemical
Details: 400 ppm additive, 160-170° F
Description: Photographic film contains a layer of a binding agent that is a protein (gelatin) which is readily attacked and removed by protease under ambient conditions. The film has multiple colored layers of the gelatin binding agent which can serve as an indication of the degree of attack if exposed to suitable enzymes. Photographic film was used in experiments to show the ability of enzymes, proteases, to attach or remove the protein layer under various conditions.
In the experiments outlined in Table 1, a beaker was charged with 5 grain tap water. An activator, “Additive 1”, was added to the beaker with the water temperature adjusted to the temperature as shown in the “Temp (F) Additive 1” column. The solution was then adjusted for the film test to the temperature as shown in “Temp (F) Enzyme” and a protease enzyme and section of photographic film added. The solution was stirred for 5 minutes and the film recovered and wiped with a paper towel for visual examination.
The additive, enzyme and then the combination of protease enzyme and additives were heated to the temperatures indicated in the applicable columns to analyze the various conditions under which the protease enzyme was able to readily attack and removed the protein (gelatin) layers of the photographic film. […]

cocoamidyl propyl butane [CAPB]
additive function as activator/stabilizer of enzymes at elevated temperatures: function to activate and/or stabilize enzymes

O=C(O)[C@@H]1CCCN1 [proline]
additive function as activator/stabilizer of enzymes at elevated temperatures: function to activate and/or stabilize enzymes
